The source of these data is US20260184708A1, “PYRIDAZINONES AND METHODS OF USE THEREOF” (GFB (ABC), LLC, priority 2017, published 2026).

Molecules are shown by their SMILES.

The target of one test is T1, TRPC5 (Homo sapiens, UniProt Q9UL62).
T1 construct: expressed in transfected cells; host or cells: HEK 293
T1 sequence (Q9UL62 1-973): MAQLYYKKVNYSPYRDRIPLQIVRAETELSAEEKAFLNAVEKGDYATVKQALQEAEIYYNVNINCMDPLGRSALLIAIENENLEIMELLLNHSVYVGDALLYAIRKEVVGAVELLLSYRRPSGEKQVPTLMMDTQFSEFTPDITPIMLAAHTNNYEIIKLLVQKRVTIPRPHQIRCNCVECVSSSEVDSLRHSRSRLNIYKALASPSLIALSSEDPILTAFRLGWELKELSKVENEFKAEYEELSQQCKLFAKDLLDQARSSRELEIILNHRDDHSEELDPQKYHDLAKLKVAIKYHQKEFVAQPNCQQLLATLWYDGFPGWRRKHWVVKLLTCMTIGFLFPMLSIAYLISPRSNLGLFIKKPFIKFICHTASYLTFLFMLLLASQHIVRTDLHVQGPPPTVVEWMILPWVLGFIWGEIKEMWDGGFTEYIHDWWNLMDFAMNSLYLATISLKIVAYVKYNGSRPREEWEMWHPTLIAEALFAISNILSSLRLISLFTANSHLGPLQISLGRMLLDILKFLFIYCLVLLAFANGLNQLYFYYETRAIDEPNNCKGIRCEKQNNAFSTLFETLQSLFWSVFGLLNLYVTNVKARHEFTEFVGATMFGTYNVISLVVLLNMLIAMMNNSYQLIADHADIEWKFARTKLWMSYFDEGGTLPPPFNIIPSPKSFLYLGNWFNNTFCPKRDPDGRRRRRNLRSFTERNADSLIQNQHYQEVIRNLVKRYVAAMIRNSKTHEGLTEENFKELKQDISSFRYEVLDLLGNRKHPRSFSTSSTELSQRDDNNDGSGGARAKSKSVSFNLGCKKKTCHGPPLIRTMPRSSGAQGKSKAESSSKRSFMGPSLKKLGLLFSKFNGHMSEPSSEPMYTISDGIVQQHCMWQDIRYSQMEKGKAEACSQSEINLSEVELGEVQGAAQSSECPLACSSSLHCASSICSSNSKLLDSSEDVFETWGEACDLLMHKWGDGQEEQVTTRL
Kind of test: TRPC5 automated patch clamp assay (Qpatch), current block after rosiglitazone stimulation. Format: cell-based.
Conditions: not given
Here is the method:
HEK 293 cells expressing human TRPC5 were harvested, re-suspended in serum free medium, and added to the automated platform and used within 2-3 hours. Internal and external physiological solutions were freshly prepared prior to the assay. The external solution contained: 145 mM NaCl, 4 mM KCl, 2 mM CaCl2), 1 mM MgCl2, 10 mM HEPES, 10 mM glucose, pH 7.4 with NaOH and 300 mOsm/L. The internal solution contained 120 mM L-aspartic acid, 120 mM CsOH·H2O, 20 mM CsCl, 2 mM MgCl2, 8.8 mM CaCl2), 10 mM EGTA, 10 mM HEPES, 10 mM Glucose, 0.1 mM GTP and 2 mM Na2ATP; pH 7.2 with CsOH and 290 mOsm/L. The free internal Ca2+ concentration was buffered to 1 μM.
The automated electrophysiological platform QPatch 16 from Sophion (Denmark) was used to carry out the compounds profiling. The series resistance and quality of seals were continuously monitored during the experiments. Data was analyzed using Sophion QPatch assay software 5.6 (Odense). IC50 values were calculated using a least squares regression algorithm (Hill equation).
To monitor the ion currents, a voltage ramp from −100 mV to +100 mV, over 300 ms, was applied every 10 seconds, from a holding potential of −60 mV.
After recording for a minimum of 60 seconds control period, Rosiglitazone (30 uM), was applied to activate the channel.
On the technique in general: The patch-clamp technique gives a direct electrical read-out from membranes.
On to `O=c1[nH]ncc(N2CCc3c(ncn3Cc3cccc(C(F)(F)F)c3)C2)c1Cl`, for which the IC50 lay within 1 to 5 µM.

Staying with this test, now noted: HEK293 cells overexpressing TRPC5; rosiglitazone stimulation; 80 mV; read-out: TRPC5_QP XC50_80.
For the compound `Cc1ccccc1C(=O)N1CCN(c2cn[nH]c(=O)c2Br)CC1`, the IC50 was in the range of 5 to 10 µM. Take `O=C(c1ccccc1)N1CCN(c2cn[nH]c(=O)c2Br)CC1`: the IC50 is 10 to 500 µM. Same read-out and setting: under `CC(c1ccccc1)N1CCN(c2cn[nH]c(=O)c2Br)CC1` (centres unmarked) stands 1 to 5 µM.

The test is the same for the next values; noted with them: HEK293 cells overexpressing TRPC5; rosiglitazone stimulation; 100 mV; read-out: TRPC5_QP XC50_100.
In the case of `Cc1ccccc1C(=O)N1CCN(c2cn[nH]c(=O)c2Br)CC1`, the IC50 was 5 to 10 µM.

Consider `O=C(c1ccccc1)N1CCN(c2cn[nH]c(=O)c2Br)CC1`, for which the IC50 lay in the range of 10 to 500 µM. Still for that read-out and setting: under `CC(c1ccccc1)N1CCN(c2cn[nH]c(=O)c2Br)CC1` (centres unmarked) stands 5 to 10 µM.

Still in this test, the particulars now being: Table 3; HEK293 cells overexpressing TRPC5; rosiglitazone stimulation; 80 mV; read-out: TRPC5_QP_ XC50_80.
`Cc1ccccc1CN1CC2(CCN(c3cn[nH]c(=O)c3Br)C2)C1`: the IC50 lay within 10 to 500 µM. As for `Cc1ccccc1CN1CCN(c2cn[nH]c(=O)c2-c2ccccc2)CC1=O`, the IC50 lay within 10 to 500 µM. On to `O=c1[nH]ncc(N2CCN(Cc3ccc(F)cc3F)CC2)c1Cl`, for which the IC50 is 5 to 10 µM.

As for `Cn1nccc1CN1CCN(c2cn[nH]c(=O)c2Br)CC1`, the IC50 lay in the range of 5 to 10 µM. Regarding `O=c1[nH]ncc(N2CCN(Cc3ccc(F)cc3Cl)CC2)c1Cl`, the IC50 is 1 to 5 µM.

Consider `O=c1[nH]ncc(N2CCN(Cc3cccc(C(F)(F)F)c3)CC2)c1Cl`, for which the IC50 fell in the range of 1 to 5 µM. On to `Cc1ccccc1CN1CCN(c2cn[nH]c(=O)c2Cl)CC1=O` [drawing 664], for which the IC50 was 1e-05 to 1 µM.

Take `O=C1CN(c2cn[nH]c(=O)c2Br)CCN1Cc1ccc(F)cc1F`: the IC50 was 1 to 5 µM. `Cc1cc(F)ccc1CN1CCN(c2cn[nH]c(=O)c2Cl)CC1` [drawing 679]: the IC50 was 1 to 5 µM.

The test is the same for the next values; noted with them: Table 3; HEK293 cells overexpressing TRPC5; rosiglitazone stimulation; 100 mV; read-out: TRPC5_QP_ XC50_100.
Consider `Cc1ccccc1CN1CC2(CCN(c3cn[nH]c(=O)c3Br)C2)C1`, for which the IC50 fell in the range of 10 to 500 µM.

Take `Cc1ccccc1CN1CCN(c2cn[nH]c(=O)c2-c2ccccc2)CC1=O`: the IC50 was 10 to 500 µM. Consider `O=c1[nH]ncc(N2CCN(Cc3ccc(F)cc3F)CC2)c1Cl`, for which the IC50 was 5 to 10 µM. Turning to `Cn1nccc1CN1CCN(c2cn[nH]c(=O)c2Br)CC1`, the IC50 lay in the range of 5 to 10 µM. Consider `O=c1[nH]ncc(N2CCN(Cc3ccc(F)cc3Cl)CC2)c1Cl`, for which the IC50 is 5 to 10 µM. For `O=c1[nH]ncc(N2CCN(Cc3cccc(C(F)(F)F)c3)CC2)c1Cl`, the IC50 lay in the range of 1 to 5 µM. The same measure, in the same setting: to `Cc1ccccc1CN1CCN(c2cn[nH]c(=O)c2Cl)CC1=O` [drawing 664] belongs 1e-05 to 1 µM.

As to `O=C1CN(c2cn[nH]c(=O)c2Br)CCN1Cc1ccc(F)cc1F`, the IC50 lay within 1 to 5 µM. For the compound `Cc1cc(F)ccc1CN1CCN(c2cn[nH]c(=O)c2Cl)CC1` [drawing 679], the IC50 fell in the range of 1 to 5 µM.

Staying with this test, now noted: Table 4; HEK293 cells overexpressing TRPC5; rosiglitazone stimulation; 80 mV; read-out: TRPC5_QP_ XC50_80.
As to `O=c1[nH]ncc(N2CCN(Cc3cccc4ccccc34)CC2)c1Cl`, the IC50 is 1 to 5 µM. Same read-out and setting: to `O=C1CN(c2cn[nH]c(=O)c2Cl)CCN1Cc1ccc(Oc2ccccc2)cc1` belongs 10 to 500 µM; to `Cc1cc(F)ccc1CN1CCN(c2cc(=O)[nH][nH]c2=O)CC1`, 10 to 500 µM; to `C[C@@H]1CN(Cc2cccc3ccccc23)CCN1c1cn[nH]c(=O)c1Cl`, 5 to 10 µM.

As for `CCc1c(N2CCN(Cc3ccccc3C)C(=O)C2)cn[nH]c1=O`, the IC50 is 5 to 10 µM. Turning to `C[C@H](c1ccccc1)N1CCN(c2cn[nH]c(=O)c2Cl)CC1`, the IC50 is 1 to 5 µM.

Still in this test, the particulars now being: Table 4; HEK293 cells overexpressing TRPC5; rosiglitazone stimulation; 100 mV; read-out: TRPC5_QP_ XC50_100.
As to `O=c1[nH]ncc(N2CCN(Cc3cccc4ccccc34)CC2)c1Cl`, the IC50 fell in the range of 1 to 5 µM.

With `O=C1CN(c2cn[nH]c(=O)c2Cl)CCN1Cc1ccc(Oc2ccccc2)cc1`, the IC50 was 10 to 500 µM. On the same count and under the same terms, to `Cc1cc(F)ccc1CN1CCN(c2cc(=O)[nH][nH]c2=O)CC1` belongs 10 to 500 µM.

With `C[C@@H]1CN(Cc2cccc3ccccc23)CCN1c1cn[nH]c(=O)c1Cl`, the IC50 lay within 5 to 10 µM.

`CCc1c(N2CCN(Cc3ccccc3C)C(=O)C2)cn[nH]c1=O`: the IC50 lay within 5 to 10 µM. Same read-out and setting: to `C[C@H](c1ccccc1)N1CCN(c2cn[nH]c(=O)c2Cl)CC1` belongs 1 to 5 µM.

The test is the same for the next values; noted with them: Table 5; HEK293 cells overexpressing TRPC5; rosiglitazone stimulation; 80 mV; read-out: TRPC5_QP_ XC50_80.
On to `Cc1n[nH]c(=O)c(N2CCN(Cc3ccccc3C(F)(F)F)C(=O)C2)c1Cl`, for which the IC50 was 5 to 10 µM. The same measure, in the same setting: to `Cc1ccccc1CN1CCN(c2c(Cl)cn[nH]c2=O)CC1=O` belongs 10 to 500 µM; to `Cc1cc(F)ccc1CN1CCN(c2cc(=O)[nH]nc2-c2ccccc2)CC1`, 1 to 5 µM; to `Cc1n[nH]c(=O)c(Cl)c1N1CCN(Cc2ccccc2OC(F)(F)F)C(=O)C1`, 5 to 10 µM. Take `O=C1N(Cc2ccccc2C(F)(F)F)CCC12CCN(c1cn[nH]c(=O)c1Br)CC2`: the IC50 lay in the range of 10 to 500 µM. As to `Cc1n[nH]c(=O)c(N2CCN(Cc3ccc(F)cc3C(F)(F)F)C(=O)C2)c1Cl`, the IC50 was 10 to 500 µM. On the same count and under the same terms, under `COc1ncccc1CN1CCN(c2cn[nH]c(=O)c2Cl)CC1` stands 1 to 5 µM; under `COc1cc(F)ccc1CN1CCN(c2c(Cl)cn[nH]c2=O)CC1=O`, 10 to 500 µM.

Turning to `C[C@H](c1ccccc1)n1cnc2c1CCN(c1cn[nH]c(=O)c1Cl)C2` [drawing 833], the IC50 lay within 1 to 5 µM.

The test is the same for the next values; noted with them: Table 5; HEK293 cells overexpressing TRPC5; rosiglitazone stimulation; 100 mV; read-out: TRPC5_QP_ XC50_100.
Take `Cc1n[nH]c(=O)c(N2CCN(Cc3ccccc3C(F)(F)F)C(=O)C2)c1Cl`: the IC50 is 5 to 10 µM. Same read-out and setting: under `Cc1ccccc1CN1CCN(c2c(Cl)cn[nH]c2=O)CC1=O` stands 10 to 500 µM. As to `Cc1cc(F)ccc1CN1CCN(c2cc(=O)[nH]nc2-c2ccccc2)CC1`, the IC50 was in the range of 1 to 5 µM. On to `Cc1n[nH]c(=O)c(Cl)c1N1CCN(Cc2ccccc2OC(F)(F)F)C(=O)C1`, for which the IC50 lay in the range of 5 to 10 µM. For the compound `O=C1N(Cc2ccccc2C(F)(F)F)CCC12CCN(c1cn[nH]c(=O)c1Br)CC2`, the IC50 lay within 10 to 500 µM. Still for that read-out and setting: under `Cc1n[nH]c(=O)c(N2CCN(Cc3ccc(F)cc3C(F)(F)F)C(=O)C2)c1Cl` stands 10 to 500 µM; under `COc1ncccc1CN1CCN(c2cn[nH]c(=O)c2Cl)CC1`, 1 to 5 µM; under `COc1cc(F)ccc1CN1CCN(c2c(Cl)cn[nH]c2=O)CC1=O`, 10 to 500 µM.

On to `C[C@H](c1ccccc1)n1cnc2c1CCN(c1cn[nH]c(=O)c1Cl)C2` [drawing 833], for which the IC50 was 1 to 5 µM.

Staying with this test, now noted: Table 6; HEK293 cells overexpressing TRPC5; read-out: TRPC5-QPatch IC50.
For the compound `O=c1[nH]ncc(N2CCc3c(ncn3-c3cccnc3C(F)(F)F)C2)c1Cl`, the IC50 lay within 1 to 5 µM.
